The source of these data is article PMC8119212 (JCI Insight, 2021).

A word on the inhibition: it is the share of the control response that was lost under treatment. What is called IC50 is the point on the concentration scale where inhibition reaches its midpoint.

The target of data set [1] is ALK2 (WT) GS and kinase domain (Homo sapiens, UniProt Q04771). Kind of data set: DSF thermal shift, wild-type ALK2. It counts as binding.
Data set [2] relates to ACVR1^Q207D-transgenic mouse (CAG-Z-eGFP-caALK2-Tg). The data set can be described thus: ACVR1^Q207D-Tg mouse model of heterotopic ossification. The conditions noted are these: for mobility (passive range of motion): 6 mg/kg intraperitoneally twice daily, not shown. An excerpt: In these animals, activation of the ACVR1^Q207D transgene and associated GFP reporter is mediated by a single intramuscular injection of Adenovirus expressing Cre recombinase (Ad.Cre) in the left hindlimb on P7. This induces the expression of the human ACVR1^Q207D transgene, as well as muscle necrosis and inflammation, which together result in the formation of heterotopic bone lesions within 7–10 days following Ad.Cre injection ([16]). This model is believed to recapitulate aspects of clinical HO and FOP, in which muscle injury and inflammation potentiate the formation of heterotopic bone in soft tissues.
(D) Representative hindlimb scoring system. All range of motion scoring was performed by 2 separate operators who were blinded to the treatment condition of the animal.
Mice were maintained in accordance with IACUC guidelines under approved experimental protocols. Cre-inducible ACVR1^Q207D (CAG-Z-eGFP-caACVR1-Tg) transgenic mice were a gift from Yuji Michina (University of Michigan, Ann Arbor, Michigan, USA) as previously described ([31]). Acvr1^[R206H]FlEx/+ mice were generated as previously described ([13]). Heterotopic bone formation in these mice was introduced via single retro-popliteal injection of adenoviral Cre-recombinase at 1 × 10^8 PFU at P7. […] Bone formation as a function of a loss of passive range of motion, via dorsiflexion of the left ankle joint was assessed daily. Scores were assessed by 2 independent observers blinded to genotype and treatment. […] To monitor the progression of HO during the in vivo studies, x-ray radiographs were also imaged at various time points. Mice were anesthetized using ketamine at 100 mg/kg and imaged nonterminally in the prone position with tibial lateralization and hip abduction, allowing for reproducible positioning. Radiographs were obtained using 30-second scans and 50 kV exposures (MS FX In Vivo Pro: Carestream Imaging). […] After reconstruction, regions of interest were chosen and exported into DICOM format, and analyzed by Osirix analysis software. Fixed soft tissues and bone were stained with alizarin red and Alcian blue as previously described ([62]).

Data set [3] deals with ARG (ABL2) (Homo sapiens, UniProt P42684). Kind of data set: Caliper kinase profiling (Nanosyn), ARG. It counts as biochemical.
Chain of ARG (ABL2) (P42684 whole entry): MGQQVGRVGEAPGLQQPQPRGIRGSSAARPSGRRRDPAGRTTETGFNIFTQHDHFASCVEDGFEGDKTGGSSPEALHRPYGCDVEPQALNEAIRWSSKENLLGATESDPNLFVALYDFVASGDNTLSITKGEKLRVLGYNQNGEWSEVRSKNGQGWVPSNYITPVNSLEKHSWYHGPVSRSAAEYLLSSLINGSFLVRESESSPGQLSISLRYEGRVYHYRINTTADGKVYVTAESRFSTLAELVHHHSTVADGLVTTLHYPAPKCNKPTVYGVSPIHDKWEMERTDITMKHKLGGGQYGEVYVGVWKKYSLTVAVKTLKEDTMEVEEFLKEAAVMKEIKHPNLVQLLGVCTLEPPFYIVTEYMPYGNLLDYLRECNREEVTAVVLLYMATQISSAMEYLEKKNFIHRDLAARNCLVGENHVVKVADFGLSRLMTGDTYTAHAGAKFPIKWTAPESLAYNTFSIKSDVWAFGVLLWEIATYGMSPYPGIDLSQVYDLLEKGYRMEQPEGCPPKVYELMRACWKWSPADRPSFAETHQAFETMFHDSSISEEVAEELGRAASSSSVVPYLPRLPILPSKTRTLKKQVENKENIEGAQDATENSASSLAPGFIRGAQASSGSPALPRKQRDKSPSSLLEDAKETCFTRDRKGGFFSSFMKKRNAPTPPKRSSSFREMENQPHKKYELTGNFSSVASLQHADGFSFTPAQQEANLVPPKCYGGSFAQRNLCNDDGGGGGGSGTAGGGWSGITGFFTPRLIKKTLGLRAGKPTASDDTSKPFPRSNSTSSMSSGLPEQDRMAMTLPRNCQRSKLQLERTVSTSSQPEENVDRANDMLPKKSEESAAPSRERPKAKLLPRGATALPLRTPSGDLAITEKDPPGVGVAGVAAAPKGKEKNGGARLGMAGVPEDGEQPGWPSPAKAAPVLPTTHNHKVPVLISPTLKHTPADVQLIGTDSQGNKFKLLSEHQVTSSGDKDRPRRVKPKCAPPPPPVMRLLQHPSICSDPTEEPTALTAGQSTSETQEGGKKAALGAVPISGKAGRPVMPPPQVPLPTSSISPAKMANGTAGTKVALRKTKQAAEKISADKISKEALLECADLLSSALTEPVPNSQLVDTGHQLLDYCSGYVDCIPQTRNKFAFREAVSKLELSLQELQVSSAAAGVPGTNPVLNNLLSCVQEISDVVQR
For data set [4], the system named is TGF-β signaling. The data set can be described thus: cells. The following applies: Homo sapiens, MDA-MB-231.
The target in data set [5] is LYN (Homo sapiens, UniProt P07948). Kind of data set: Caliper kinase profiling (Nanosyn), LYN. It counts as biochemical.
Chain of LYN (P07948 whole entry, the tested form may be a part): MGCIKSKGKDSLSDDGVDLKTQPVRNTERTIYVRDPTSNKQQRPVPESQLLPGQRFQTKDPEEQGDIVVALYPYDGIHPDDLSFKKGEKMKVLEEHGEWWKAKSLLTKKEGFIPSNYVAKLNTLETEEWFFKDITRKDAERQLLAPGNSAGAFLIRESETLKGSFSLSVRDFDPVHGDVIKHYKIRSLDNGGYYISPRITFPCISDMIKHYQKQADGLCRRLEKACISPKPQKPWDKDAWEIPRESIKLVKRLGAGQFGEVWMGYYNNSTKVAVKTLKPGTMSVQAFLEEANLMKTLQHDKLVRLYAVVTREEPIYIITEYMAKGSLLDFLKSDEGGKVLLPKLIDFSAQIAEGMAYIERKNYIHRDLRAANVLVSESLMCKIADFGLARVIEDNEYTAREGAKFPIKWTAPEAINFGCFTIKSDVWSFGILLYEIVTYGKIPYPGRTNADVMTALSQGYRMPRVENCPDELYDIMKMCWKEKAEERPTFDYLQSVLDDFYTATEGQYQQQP
The target of data set [6] is T1, recombinant ALK3 kinase domain (Homo sapiens, UniProt P36894).
T1 construct: purified recombinant ALK1-6 kinase domains; purchased Carna Bioscience 09-134
T1 sequence (P36894 234-525 limits assumed): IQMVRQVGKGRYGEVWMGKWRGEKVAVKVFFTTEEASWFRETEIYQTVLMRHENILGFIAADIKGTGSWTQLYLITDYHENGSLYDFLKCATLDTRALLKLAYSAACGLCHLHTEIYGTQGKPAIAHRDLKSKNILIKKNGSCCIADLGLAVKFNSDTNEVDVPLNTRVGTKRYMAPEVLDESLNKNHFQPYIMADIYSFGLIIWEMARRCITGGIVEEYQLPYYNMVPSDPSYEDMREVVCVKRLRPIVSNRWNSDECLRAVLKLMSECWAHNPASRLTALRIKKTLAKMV
The data set can be described thus: LANCE Ultra TR-FRET kinase assay, ALK3. It counts as biochemical. The conditions noted are these: 10 nM kinase, 50 μM peptide substrate, 10 μM ATP. An excerpt:
(§1) Data shown are plotted as mean ± SD. (n = 3 independent replicates). […] (n = 3 replicates). […] Data shown are plotted as mean ± SD. (n ≥ 3 independent replicates).
(§2) Recombinant ALK1 was obtained from Life Technology (catalog PV4883). Recombinant ALK2 to ALK6 were purchased from Carna Bioscience (catalog 09-134). A LANCE Ultra TR-FRET kinase assay was used for measurements of enzyme activities that included a ULight-labeled (Thr-1342) peptide substrate (catalog TRF0130-M, PerkinElmer) and a Europium-labeled anti-phospho peptide antibody (catalog TRF0218-M). The kinase reaction was carried out in a buffer containing 10 mM MgCl2, 3 mM MnCl2, 0.005% Tween-20, 2 mM DTT, and 50 mM HEPES, pH 7.0. The details of the enzyme assays will be reported in a separate paper (our unpublished observations). Briefly, 2.5 μL/well kinase protein (10 nM final) was dispensed to a white solid 1536-well plate followed by addition of 23 nL/well compound diluted in DMSO using a Pin-tool station (Wako-Kalypsis). After a 10-minute incubation at room temperature, 2.5 μL/well substrate solution (50 μM peptide and 10 μM ATP, final) was added, and the assay plate was incubated for 60 minutes at room temperature. […] The signals of time-resolved fluorescence resonance energy transfer (TR-FRET) assay were measured in an Envision plate reader (PerkinElmer) with a TR-FRET mode (Ex = 320, Em1 = 665, and Em2 = 615 nm).
(In general: Time-resolved FRET reads energy transfer from a long-lived donor to a nearby acceptor.)

The target of data set [7] is T2, recombinant ALK1 kinase domain (Homo sapiens, UniProt P37023).
T2 construct: purified recombinant ALK1-6 kinase domains; purchased Life Technology PV4883
T2 sequence (P37023 202-492 limits assumed): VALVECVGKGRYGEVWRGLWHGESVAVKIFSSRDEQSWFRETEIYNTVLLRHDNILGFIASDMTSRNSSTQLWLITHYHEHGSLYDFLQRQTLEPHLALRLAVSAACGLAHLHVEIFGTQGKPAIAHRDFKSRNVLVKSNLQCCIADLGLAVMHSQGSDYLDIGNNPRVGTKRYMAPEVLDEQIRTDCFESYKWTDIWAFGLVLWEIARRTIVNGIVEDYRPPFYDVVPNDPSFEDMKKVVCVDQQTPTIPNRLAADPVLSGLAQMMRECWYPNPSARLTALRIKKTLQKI
The data set can be described thus: LANCE Ultra TR-FRET kinase assay, ALK1. The conditions noted are these: 10 nM kinase, 50 μM peptide substrate, 10 μM ATP. Format: biochemical.
Text: as §1, §2

In data set [8] the target is T3, recombinant ALK5 kinase domain (Homo sapiens, UniProt P36897).
T3 construct: purified recombinant ALK1-6 kinase domains; purchased Carna Bioscience 09-134
T3 sequence (P36897 205-495 limits assumed): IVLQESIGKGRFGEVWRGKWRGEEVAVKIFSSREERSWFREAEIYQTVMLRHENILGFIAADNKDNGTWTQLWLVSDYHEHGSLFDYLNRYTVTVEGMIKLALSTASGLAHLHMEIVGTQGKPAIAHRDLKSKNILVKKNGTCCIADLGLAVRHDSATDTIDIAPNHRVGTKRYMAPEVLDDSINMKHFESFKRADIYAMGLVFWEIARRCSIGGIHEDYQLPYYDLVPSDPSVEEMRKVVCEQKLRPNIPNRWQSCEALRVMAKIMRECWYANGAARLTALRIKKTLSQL
The data set can be described thus: LANCE Ultra TR-FRET kinase assay, ALK5. The conditions noted are these: 10 nM kinase, 50 μM peptide substrate, 10 μM ATP. It counts as biochemical.

The target in data set [9] is HCK (Homo sapiens, UniProt P08631). Kind of data set: Caliper kinase profiling (Nanosyn), HCK. It counts as biochemical.
Chain of HCK (P08631 whole entry, the tested form may be a part): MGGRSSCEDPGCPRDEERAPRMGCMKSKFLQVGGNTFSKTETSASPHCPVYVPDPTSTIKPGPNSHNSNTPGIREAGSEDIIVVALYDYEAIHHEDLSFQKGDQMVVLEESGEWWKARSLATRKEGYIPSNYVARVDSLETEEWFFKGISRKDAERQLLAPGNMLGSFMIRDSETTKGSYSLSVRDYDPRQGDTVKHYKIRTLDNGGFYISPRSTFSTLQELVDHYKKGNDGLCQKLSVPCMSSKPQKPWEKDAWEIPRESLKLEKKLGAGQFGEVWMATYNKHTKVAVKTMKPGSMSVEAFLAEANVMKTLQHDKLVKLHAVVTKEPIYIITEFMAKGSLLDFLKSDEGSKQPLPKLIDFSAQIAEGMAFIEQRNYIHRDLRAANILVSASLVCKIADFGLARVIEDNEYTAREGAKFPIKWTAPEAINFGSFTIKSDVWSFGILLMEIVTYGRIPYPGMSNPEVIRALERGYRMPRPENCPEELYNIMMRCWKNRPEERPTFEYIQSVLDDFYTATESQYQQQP
Data set [10] deals with T4, recombinant ALK4 kinase domain (Homo sapiens, UniProt P36896).
T4 construct: purified recombinant ALK1-6 kinase domains; purchased Carna Bioscience 09-134
T4 sequence (P36896 207-497 limits assumed): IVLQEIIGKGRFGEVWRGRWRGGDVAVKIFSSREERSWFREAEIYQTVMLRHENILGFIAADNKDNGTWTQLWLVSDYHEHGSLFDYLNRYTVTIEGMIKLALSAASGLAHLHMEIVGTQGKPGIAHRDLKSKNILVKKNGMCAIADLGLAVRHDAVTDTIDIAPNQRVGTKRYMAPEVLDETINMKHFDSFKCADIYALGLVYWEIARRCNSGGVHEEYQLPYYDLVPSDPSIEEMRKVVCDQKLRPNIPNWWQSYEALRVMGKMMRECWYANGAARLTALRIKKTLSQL
Kind of data set: LANCE Ultra TR-FRET kinase assay, ALK4. Format: biochemical. The following applies: 10 nM kinase, 50 μM peptide substrate, 10 μM ATP.

The conditions of data set [11]: cited from earlier work.
For data set [12], the target named is TNIK (Homo sapiens, UniProt Q9UKE5). The data set can be described thus: Caliper kinase profiling (Nanosyn), TNIK. Format: biochemical.
For data set [13], the system named is HEK293 cells. The following applies: human. How it is done: (§3) Inhibition of the BMP receptors caALK1, caALK2, and caALK3 was assessed via the activity of a BMP-response element LUC reporter (BRE-Luc) stably expressed in the C2C12 cell line, whereas the activin (caALK4) and TGF-β (caALK5) receptors were profiled via a CAGA-Luc reporter construct stably expressed in HEK293 cells (Figure 2B). […] Cell viability was assayed with an MTT (3-[4,5-dimethylthiazol-2-yl]-2,5-diphenyl tetrazolium bromide) colorimetric assay (Promega) per the manufacturer’s instructions.
(§4) lines was determined using the MTT cell viability assay . Data were plotted as mean + S.E.M. and
(§5) (1 picture or pasted object on this page, not shown here)

Data set [14] has as its system C2C12 cells. The conditions noted are these: mouse. The protocol:
as §3, §4, §5

The subject of data set [15] is zebrafish embryos. Kind of data set: Zebrafish embryo dorsalization. It counts as in vivo. The following applies: incubation starting at 0.5 hours after fertilization. How it is done: Dorsoventral axis specification during embryogenesis is regulated by the activity of BMP signaling agonists and antagonists ([30]).
Zebrafish embryos were treated with varying inhibitor concentrations from less than or equal to 0.5 hours after fertilization. Inhibitor stocks (20 mM) were diluted in fish water from DMSO. Embryos were scored according to Mullins et al. ([61]).

Data set [16] concerns BMP7 signaling. Kind of data set: cells. The conditions noted are these: Homo sapiens, MDA-MB-231. The protocol:
(§6) Reactions contained 10 nM kinase, 50 μM peptide substrate, and 10 μM ATP. Data shown are plotted as mean ± SD. (n = 3 independent replicates). […] Data shown are representative of more than 3 independent experiments, with data plotted as mean ±SEM. (n = 3 replicates). […] Data shown are plotted as mean ± SD. (n ≥ 3 independent replicates).
(§7) For subsequent investigations of ligand-dependent receptor signaling we used MDA-MB-231 cells stably expressing either the BRE-Luc or CAGA-Luc construct.
(§8) MDA-MB-231 cells stably expressing BRE-Luc or CAGA-Luc were generously provided by Caroline Hill (Francis Crick Institute). […] LUC activity was measured using the Promega Dual LUC Reporter Assay system and percentage activity determined compared with cells treated with growth factor and no inhibitor. Growth factors (Peprotech) were used at the following concentrations: 500 ng/mL BMP2, 10 ng/mL BMP4, 500 ng/mL BMP6, 500 ng/mL BMP7, 4 ng/mL TGF-β, and 200 ng/mL activin A. Experiments were repeated at least 3 times and plotted as mean ± SD.

Data set [17] deals with activin A signaling. Kind of data set: cells. The conditions noted are these: Homo sapiens, MDA-MB-231. How it is done:
as §6, §7, §8

In data set [18] the test system is BMP6 signaling. The data set can be described thus: cells. The conditions noted are these: Homo sapiens, MDA-MB-231. The protocol: as §6, §7, §8
The test system of data set [19] is BMP4 signaling. Kind of data set: cells. The following applies: Homo sapiens, MDA-MB-231. The protocol: as §6, §7, §8
Data set [20] relates to BMP2 signaling. Kind of data set: cells. The conditions noted are these: Homo sapiens, MDA-MB-231. How it is done:
as §6, §7, §8

Data set [21] addresses RIPK2 (Homo sapiens, UniProt O43353). Kind of data set: Caliper kinase profiling (Nanosyn), RIPK2. Format: biochemical.
The target of data set [22] is T5, recombinant ALK6 kinase domain (Homo sapiens, UniProt O00238).
T5 construct: purified recombinant ALK1-6 kinase domains; purchased Carna Bioscience 09-134
T5 sequence (O00238 204-494 limits assumed): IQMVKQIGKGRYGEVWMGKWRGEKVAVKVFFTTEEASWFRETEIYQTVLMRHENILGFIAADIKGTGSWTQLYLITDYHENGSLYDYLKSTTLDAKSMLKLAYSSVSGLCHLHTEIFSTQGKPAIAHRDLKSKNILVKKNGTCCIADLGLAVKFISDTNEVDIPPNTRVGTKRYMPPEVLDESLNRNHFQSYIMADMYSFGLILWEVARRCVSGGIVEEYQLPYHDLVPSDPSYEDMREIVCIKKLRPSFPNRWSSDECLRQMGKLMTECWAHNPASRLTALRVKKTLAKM
The data set can be described thus: LANCE Ultra TR-FRET kinase assay, ALK6. The following applies: 10 nM kinase, 50 μM peptide substrate, 10 μM ATP. Format: biochemical.
Text: as §1, §2

Data set [23] relates to BMP7-induced phosphorylation of SMAD1/5. The data set can be described thus: Western blot, BMP7-induced phospho-SMAD1/5 in C2C12 cells. The following applies: 100 nM saracatinib. A general note: A western blot detects proteins with antibodies after separation by electrophoresis.
For data set [24], the system named is TGF-β–dependent phosphorylation of SMAD2. The conditions noted are these: C2C12 cells; Western blot.

Entries after “also recorded” stand apart in the source; their conditions may differ.

Chain of ALK2 (WT) GS and kinase domain (Q04771 172-499): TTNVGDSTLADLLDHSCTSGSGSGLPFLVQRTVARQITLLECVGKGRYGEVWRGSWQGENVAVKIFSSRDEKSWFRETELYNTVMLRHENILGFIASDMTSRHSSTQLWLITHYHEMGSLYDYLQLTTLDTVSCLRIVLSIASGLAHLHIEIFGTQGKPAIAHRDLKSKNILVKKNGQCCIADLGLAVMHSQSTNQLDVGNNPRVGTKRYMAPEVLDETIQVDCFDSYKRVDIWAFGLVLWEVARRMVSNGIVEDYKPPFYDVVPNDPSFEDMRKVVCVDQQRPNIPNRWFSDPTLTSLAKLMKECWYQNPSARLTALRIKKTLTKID
Chain of RIPK2 (O43353 whole entry, the tested form may be a part): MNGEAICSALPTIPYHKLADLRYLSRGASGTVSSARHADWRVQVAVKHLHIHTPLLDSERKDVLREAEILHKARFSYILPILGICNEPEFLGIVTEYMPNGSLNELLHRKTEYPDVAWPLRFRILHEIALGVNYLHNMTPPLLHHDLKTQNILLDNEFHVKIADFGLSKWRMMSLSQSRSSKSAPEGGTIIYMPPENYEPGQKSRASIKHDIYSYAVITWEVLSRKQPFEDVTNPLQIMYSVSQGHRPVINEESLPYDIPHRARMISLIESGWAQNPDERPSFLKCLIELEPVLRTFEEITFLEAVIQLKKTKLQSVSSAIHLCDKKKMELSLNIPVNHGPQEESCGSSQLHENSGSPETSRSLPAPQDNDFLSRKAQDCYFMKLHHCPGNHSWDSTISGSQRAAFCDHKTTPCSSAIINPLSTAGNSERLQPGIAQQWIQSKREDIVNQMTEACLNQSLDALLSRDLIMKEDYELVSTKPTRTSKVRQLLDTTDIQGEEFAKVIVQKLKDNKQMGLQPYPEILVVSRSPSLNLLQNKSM

With `COc1cc(N2CCC(N3CCN(C)CC3)CC2)ccc1Nc1ncnc(Nc2ccccc2S(=O)(=O)C(C)C)n1` [ASP3026], the “ΔTm (thermal shift)” value in data set [1] (ALK2 WT, 2 μM protein, 12.5 μM compound) is 10.7 °C.

`c1ccc2c(-c3cnn4cc(-c5ccc(N6CCNCC6)cc5)cnc34)ccnc2c1` [LDN-193189]: the “mobility (passive range of motion)” value in data set [2] is “almost entirely preserved”.

For `c1cc(-c2cnn3cc(-c4ccc(N5CCNCC5)cc4)cnc23)c2cccnc2c1` [LDN-212854], the “weight loss relative to vehicle-treated animals” value in data set [2] (6 mg/kg i.p. twice daily) was 10%–25%. The “mobility (passive range of motion)” value in data set [2] is on record as “almost entirely preserved”.

With `CN1CCN(CCOc2cc(OC3CCOCC3)c3c(Nc4c(Cl)ccc5c4OCO5)ncnc3c2)CC1` [saracatinib], the inhibition at 0.1 µM in data set [3], in data set [5], in data set [9], in [12] and in [21] was greater than 50% in each case. Further, the IC50 in data set [4] is 305 nM; in data set [6], 621 nM; in data set [7], 19 nM; in [8], 6890 nM; in [10] it was 3900 nM; in [16], 5.5 nM. Moreover, the IC50 was found to be 72 nM in data set [17]; 8.9 nM in [18]; 131 nM in [19]; 61 nM in data set [20]; 6130 nM in data set [22]. Also, the t1/2 result in data set [11] is “approximately 40 hours”. Moreover, the primary side effect result in [11] (doses up to 125 mg daily for 9–12 months, phase II) is on record as “gastrointestinal discomfort”. Besides, in [11] (healthy volunteers), the “daily dose up to which safe” value was no more than 250 mg. The “adverse effects associated with higher doses” value in data set [11] (previous oncology trials, higher doses) is “neutropenia and thrombocytopenia”. The “concentration up to which well tolerated” value in data set [13] and in data set [14] was “approximately 40 μM” throughout. In addition, the “cyclopia or mesoderm specification phenotypes” value in data set [15] is given as “no evidence of cyclopia or phenotypes suggesting inhibition of mesoderm specification”. For the same compound, the dorsalization phenotype result in data set [15] is reported as “dorsalized phenotype that increased in severity in a dose-dependent manner”. Moreover, in data set [23], the “BMP7-induced phosphorylation of SMAD1/5” value is “completely inhibited”. Further, in data set [24], the “inhibitor concentration at which TGF-β–dependent phosphorylation of SMAD2 was blocked” value is 5 µM.

Take `COc1cc2c(Nc3ccc(Br)cc3F)ncnc2cc1OCC1CCN(C)CC1` [vandetanib]: the “HO formation / range of motion” value in [2] (25 mg/kg i.p. twice daily for 28 days) is on record as “no evidence of improvement in radiographic HO or range-of motion; also recorded: did not block HO formation”. For the same compound, in data set [1] (Supplemental Figure 1C), the “binding to ALK2 (in words)” value was “does not show any notable binding to ALK2”.
